Each structure is given as a SMILES string. pIC50: −log10 of the molar value.

One assay has as its target T1, human glycolate oxidase (hGO) (Homo sapiens, UniProt Q9UJM8).
T1 construct: His-tag (6 histidines, pET-15b) (N); made in house; host or cells: E. coli BL21 (DE3)
T1 sequence (Q9UJM8 1-370): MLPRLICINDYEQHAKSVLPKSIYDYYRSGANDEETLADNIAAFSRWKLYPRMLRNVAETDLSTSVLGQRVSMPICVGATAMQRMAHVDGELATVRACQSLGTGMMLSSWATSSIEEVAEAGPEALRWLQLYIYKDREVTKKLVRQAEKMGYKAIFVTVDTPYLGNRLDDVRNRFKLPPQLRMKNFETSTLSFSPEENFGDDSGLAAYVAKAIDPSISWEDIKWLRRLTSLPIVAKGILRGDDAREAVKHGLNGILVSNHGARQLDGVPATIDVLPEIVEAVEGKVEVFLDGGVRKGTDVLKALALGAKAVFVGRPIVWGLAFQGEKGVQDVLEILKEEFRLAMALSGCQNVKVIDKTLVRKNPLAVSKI
Briefly: In vitro inhibition of human glycolate oxidase (enzymatic assay, HRP-coupled Trinder reaction).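 For % Inhibition: values are IC50 potency bins despite the % Inhibition label.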 It counts as biochemical.
Details: not given
An excerpt:
The catalytic reactions used for assaying glycolate oxidase activity in the presence of compounds according to the present disclosure are outlined in FIG. 2. Glycolate oxidase (GO)-catalyzed conversion of glycolate to glyoxylate (top reaction), with the concomitant reduction of the cofactor flavin mononucleotide (FMN), uses molecular oxygen (O2) for recovering its oxidative state, releasing hydrogen peroxide (H2O2). The Trinder reaction (bottom reaction), in which horseradish peroxidase (HRP) uses hydrogen peroxide, 4-aminoantipyrine and a phenol derivative (sulphonated DCIP) to generate a quinoneimine dye that is spectrophotometrically measured.
Human glycolate oxidase (hGO) expression. BL21 (DE3) E. coli transformed with recombinant pET-15b expression vector with the N-terminal His-tag human Hao1 cDNA was grown in LB medium in the presence of 0.1 mg/ml ampicillin. For purification of recombinant human glycolate oxidase (hGO) expressed in BL21 E. coli, bacteria pellets were thawed and re-suspended in 2 ml lysis buffer (50 mM NaH2PO4, 300 mM NaCl, 10 mM imidazole, 50 μM FMN, pH 7.5), and then treated for 30 minutes with 1 mM PMSF for protease inhibition, 0.1% Triton X-100 and 0.2 mg/ml lysozyme to break cellular membranes. After sonication, cells were centrifuged and the supernatant containing the total cellular extract (pre-column fraction) was loaded into a Ni-NTA agarose column and incubated for 30 minutes at 4° C. to allow binding of the 6 histidine tail of recombinant GO protein to the nickel ions. The column was washed with two bed volumes of lysis buffer with 20 mM imidazole to eliminate unbound proteins (wash fraction). GO was eluted using the same buffer with 300 mM imidazole. Fraction containing purified GO was dialyzed against 300 ml of dialysis buffer (50 mM NaH2PO4, 300 mM NaCl, pH 7.5) at 4° C. in agitation overnight, and then kept at 4° C. in darkness. Protein were quantified by the bicinchoninic acid (BCA) assay.
Enzymatic assays. Enzymatic activity of hGO was determined in the presence of glycolate as substrate (40 mM glycolic acid) and phosphate buffer (50 mM KPO4, 0.1 mM EDTA, pH 7). The production of glyoxylate was indirectly measured by the quantification of hydrogen peroxide formed during the first oxidation reaction. […] Enzymatic activity was calculated at 1 minute after initiation of the Trinder reaction.
Consider `O=C(O)c1nn[nH]c1Oc1ccc(-c2ccccc2)cc1` [Example 42, 5-([1,1′-biphenyl]-4-yloxy)-1H-1,2,3-triazole-4-carboxylic Acid], for which the pIC50 was 6.70 to 7.00.
Still for that read-out and setting: with `O=C(O)c1nn[nH]c1Oc1ccccc1` [Example 45, 5-phenoxy-1H-1,2,3-triazole-4-carboxylic Acid] the figure was less than 6.70; with `COc1ccc(Oc2[nH]nnc2C(=O)O)cc1` [Example 46, 5-(4-methoxyphenoxy)-1H-1,2,3-triazole-4-carboxylic Acid], greater than 7.00; with `O=C(O)c1nn[nH]c1Sc1ccc(Br)cc1` [Example 52, 5-((4-bromophenyl)thio)-1H-1,2,3-triazole-4-carboxylic Acid], 6.70 to 7.00.
Compound `O=C(O)c1nn[nH]c1Oc1ccc(C2CCCC2)cc1` [Example 69, 5-(4-cyclopentylphenoxy)-1H-1,2,3-triazole-4-carboxylic Acid] had a pIC50 of 6.70 to 7.00.
Consider `Cc1cc(Oc2[nH]nnc2C(=O)O)ccc1Br` [Example 71, 5-(4-bromo-3-methylphenoxy)-1H-1,2,3-triazole-4-carboxylic Acid], for which the pIC50 was greater than 7.00.

Staying with this assay, now noted: recombinant hGO, 40 mM glycolic acid, pH 7, read at 515 nm, 1 minute after initiation of Trinder reaction; read-out: % Inhibition.
As to `O=C(O)c1nn[nH]c1Oc1ccc(-c2ccc(OC(F)F)cc2)cc1` [Example 39, 5-((4′-(difluoromethoxy)-[1,1′-biphenyl]-4-yl)oxy)-1H-1,2,3-triazole-4-carboxylic Acid], the pIC50 is 6.70 to 7.00.
Consider `O=C(O)c1nn[nH]c1Oc1ccc(-c2cccc(OC(F)F)c2)cc1` [Example 40, 5-((3′-(difluoromethoxy)-[1,1′-biphenyl]-4-yl)oxy)-1H-1,2,3-triazole-4-carboxylic Acid], for which the pIC50 was greater than 7.00.
On the same count and under the same terms, with `O=C(O)c1nn[nH]c1Oc1ccc(-c2ccoc2)cc1` [Example 41, 5-(4-(furan-3-yl)phenoxy)-1H-1,2,3-triazole-4-carboxylic Acid] the figure was 6.70 to 7.00.
As to `Cc1ccc(Oc2[nH]nnc2C(=O)O)cc1` [Example 43, 5-(p-tolyloxy)-1H-1,2,3-triazole-4-carboxylic Acid], the pIC50 was 6.70 to 7.00.
On the same count and under the same terms, with `O=C(O)c1nn[nH]c1Oc1ccc(-c2cccc(OC(F)F)c2)nc1` [Example 44, 5-((6-(3-(difluoromethoxy)phenyl)pyridin-3-yl)oxy)-1H-1,2,3-triazole-4-carboxylic Acid] the figure was 6.70 to 7.00.
Still for that read-out and setting: with `O=C(O)c1nn[nH]c1Sc1ccc(F)cc1` [Example 47, 5-((4-fluorophenyl)thio)-1H-1,2,3-triazole-4-carboxylic Acid] the figure was 6.70 to 7.00.
On the same count and under the same terms, with `O=C(O)c1nn[nH]c1Oc1ccc(Br)c(Cl)c1` [Example 48, 5-(4-bromo-3-chlorophenoxy)-1H-1,2,3-triazole-4-carboxylic Acid] the figure was greater than 7.00; with `O=C(O)c1nn[nH]c1Oc1ccc(Cl)nc1` [Example 49, 5-((6-chloropyridin-3-yl)oxy)-1H-1,2,3-triazole-4-carboxylic Acid], greater than 7.00; with `O=C(O)c1nn[nH]c1Oc1ccc(Br)cc1F` [Example 51, 5-(4-bromo-2-fluorophenoxy)-1H-1,2,3-triazole-4-carboxylic Acid], greater than 7.00.
Turning to `N#Cc1ccc(Oc2[nH]nnc2C(=O)O)cc1` [Example 53, 5-(4-cyanophenoxy)-1H-1,2,3-triazole-4-carboxylic Acid], the pIC50 is greater than 7.00.
With `Cc1ccc(Oc2[nH]nnc2C(=O)O)cn1` [Example 54, 5-((6-methylpyridin-3-yl)oxy)-1H-1,2,3-triazole-4-carboxylic Acid], the pIC50 is less than 6.70.
On to `N#Cc1ccc(-c2ccc(Oc3[nH]nnc3C(=O)O)cn2)cc1` [Example 55, 5-((6-(4-cyanophenyl)pyridin-3-yl)oxy)-1H-1,2,3-triazole-4-carboxylic Acid], for which the pIC50 is greater than 7.00.
On the same count and under the same terms, the value for `NC(=O)c1ccc(Oc2[nH]nnc2C(=O)O)cc1` [Example 56, 5-(4-carbamoylphenoxy)-1H-1,2,3-triazole-4-carboxylic Acid] was less than 6.70.
Still for that read-out and setting: with `O=C(O)c1nn[nH]c1Oc1cccnc1F` [Example 57, 5-((2-fluoropyridin-3-yl)oxy)-1H-1,2,3-triazole-4-carboxylic Acid] the figure was less than 6.70; with `CN(C)c1cccc(Oc2[nH]nnc2C(=O)O)c1` [Example 58, 5-(3-(dimethylamino)phenoxy)-1H-1,2,3-triazole-4-carboxylic Acid], greater than 7.00.
Same read-out and setting: the value for `Cc1ncc(-c2cccc(Oc3[nH]nnc3C(=O)O)c2)cn1` [Example 59, 5-(3-(2-methylpyrimidin-5-yl)phenoxy)-1H-1,2,3-triazole-4-carboxylic Acid] was greater than 7.00; that for `O=C(O)c1nn[nH]c1Oc1ccc(C(F)(F)F)cc1` [Example 60, 5-(4-(trifluoromethyl)phenoxy)-1H-1,2,3-triazole-4-carboxylic Acid] was greater than 7.00; that for `O=C(O)c1nn[nH]c1Oc1cccc(-c2cccnc2F)c1` [Example 61, 5-(3-(2-fluoropyridin-3-yl)phenoxy)-1H-1,2,3-triazole-4-carboxylic Acid] was greater than 7.00.
Regarding `O=C(O)c1nn[nH]c1Sc1ccc(-c2cccnc2F)cc1` [Example 62, 5-((4-(2-fluoropyridin-3-yl)phenyl)thio)-1H-1,2,3-triazole-4-carboxylic Acid], the pIC50 was 6.70 to 7.00.
The same measure, in the same setting: the value for `NC(=O)c1ccc(-c2cccc(Oc3[nH]nnc3C(=O)O)c2)cc1` [Example 63, 5-((4′-carbamoyl-[1,1′-biphenyl]-3-yl)oxy)-1H-1,2,3-triazole-4-carboxylic Acid] was 6.70 to 7.00.
The same measure, in the same setting: with `N#Cc1ccc(-c2cccc(Oc3[nH]nnc3C(=O)O)c2)cc1` [Example 64, 5-((4′-cyano-[1,1′-biphenyl]-3-yl)oxy)-1H-1,2,3-triazole-4-carboxylic Acid] the figure was 6.70 to 7.00; with `CN1CCN(c2ccc(Oc3[nH]nnc3C(=O)O)cc2)CC1` [Example 65, 5-(4-(4-methylpiperazin-1-yl)phenoxy)-1H-1,2,3-triazole-4-carboxylic Acid], less than 6.70.
As to `O=C(O)c1nn[nH]c1Oc1cccnc1Br` [Example 66, 5-((2-bromopyridin-3-yl)oxy)-1H-1,2,3-triazole-4-carboxylic Acid], the pIC50 was less than 6.70.
On the same count and under the same terms, with `Cc1ccc(Oc2[nH]nnc2C(=O)O)c(C)n1` [Example 67, 5-((2,6-dimethylpyridin-3-yl)oxy)-1H-1,2,3-triazole-4-carboxylic Acid] the figure was less than 6.70; with `CC(C)(C)c1ccc(Oc2[nH]nnc2C(=O)O)cc1` [Example 68, 5-(4-(tert-butyl)phenoxy)-1H-1,2,3-triazole-4-carboxylic Acid], less than 6.70.
Same read-out and setting: with `COc1ccc(Oc2[nH]nnc2C(=O)O)cn1` [Example 70, 5-((6-methoxypyridin-3-yl)oxy)-1H-1,2,3-triazole-4-carboxylic Acid] the figure was less than 6.70; with `Cc1cc(Oc2[nH]nnc2C(=O)O)ccc1-c1cccnc1F` [Example 72, 5-(4-(2-fluoropyridin-3-yl)-3-methylphenoxy)-1H-1,2,3-triazole-4-carboxylic Acid], greater than 7.00; with `Cc1nc(F)ccc1-c1ccc(Oc2[nH]nnc2C(=O)O)cc1` [Example 73, 5-(4-(6-fluoro-2-methylpyridin-3-yl)phenoxy)-1H-1,2,3-triazole-4-carboxylic Acid], greater than 7.00.
On the same count and under the same terms, with `Cc1cc(F)nc(-c2ccc(Oc3[nH]nnc3C(=O)O)cc2)c1` [Example 74, 5-(4-(6-fluoro-4-methylpyridin-2-yl)phenoxy)-1H-1,2,3-triazole-4-carboxylic Acid] the figure was greater than 7.00.
Consider `Cc1c(-c2ccc(Oc3[nH]nnc3C(=O)O)cc2)ccnc1F` [Example 75, 5-(4-(2-fluoro-3-methylpyridin-4-yl)phenoxy)-1H-1,2,3-triazole-4-carboxylic Acid], for which the pIC50 was greater than 7.00.
The same measure, in the same setting: the value for `O=C(O)c1nn[nH]c1Oc1ccc(C23CC(C2)C3)cc1` [Example 76, 5-(4-(3-bicyclo[1.1.1]pentan-1-yl)phenoxy)-1H-1,2,3-triazole-4-carboxylic Acid] was greater than 7.00.

For the origin of these results see US11401246B2, “Triazole glycolate oxidase inhibitors” (CANTERO THERAPEUTICS, INC., priority 2018, dated 2022).
